pEC50: −log10 of the molar value. No end group written: not given here.
How the values were obtained:
murine intestinal cells = murine intestinal cells (Mus musculus, UniProt O88319); assay: Ca2+ flux / calcium response assay (cell signaling activity); assay type: cell-based
Description: Ca^2+ Flux Assay/Calcium Response Assay:
Elevation of intracellular calcium level was measured using the fluorescent calcium chelating dye Fluo-4 AM (ThermoFischer Scientific, Denmark). Briefly, cells were grown as a monolayer in 96-well tissue culture plates (Sarstedt, Germany) to near confluence in appropriate growth medium as described in the cell culture section.
All test compounds were dissolved in water, and then diluted in 1×HBSS containing 25 mM HEPES (pH 7.4), 1% BSA and 2% ink. […]

[1] = Stability of peptides in serum, remaining activity read in intestinal cells; assay type: in vitro ADME, Bovine; conditions: for Stability in serum (activity remaining): octapeptides, fraction of peptide activity left after 10 min of incubation in serum at 37° C. compared with undigested sample
Description: All peptides were incubated at 10^−5 M with Fetal Bovine Serum (FBS; final concentration of 66.7%) (Sigma Aldrich, Denmark) at 37° C. for 3 hours. The peptide degradation was terminated using 1 M phosphoric acid (final 0.4 M, pH˜1.2) and neutralized to pH 7.2-7.4 with NaOH before testing activity in intestinal cells. As for small intestine homogenates, a zero degradation control was included for each peptide.
DC7-2, NT, DKPYIL and NT-(8-13) (final concentration of 10^−6 M) were incubated either with FBS or with 270× diluted intestinal homogenate at 37° C. for various time points with shaking. Degradation was stopped with 1 M phosphoric acid and the samples were subsequently neutralized and immediately tested with intestinal cells as described above. Control for zero degradation was included for each peptide as above.
(§1) The 20 hexapeptides with systematic N-terminal substitutions (X-KPYIL) (Schafer-N, Denmark) and NT (8-13) was incubated at 10^−6 M in either FBS for 10 minutes or with 270× diluted intestinal homogenate for 30 minutes at 37° C. with shaking. The degradation was stopped with 1 M phosphoric acid. Peptide solutions were neutralized with NaOH (pH 7.2-7.4), diluted and immediately tested for bioactivity using murine intestinal cells. Determination of EC50 for stimulation of cells allowed calculation of recovered peptide.

[2] = Stability of peptides in intestine homogenate, remaining activity read in intestinal cells; assay type: in vitro ADME, mice; conditions: for Stability in intestine (activity remaining): octapeptides, % activity left after 30 min incubation in intestine homogenate at 37° C.
Description: Small intestines from 20 Swiss-Webster males were homogenized in 350 ml Dulbecco's phosphate-buffered saline (PBS) (pH 7.4) (ThermoFischer Scientific, Denmark) with a IKA® basic 18 Ultra-Turrax tissue homogenizer set a speed 5 followed by filtration using 100 μm nylon mesh filter. Protein concentration was 6 mg/ml using the bicinconinic acid assay (ThermoFischer Scientific, Denmark) and bovine serum albumin as standard. The intestine homogenate was diluted 10 times in HBSS containing 25 mM HEPES (pH 7.4), and further diluted 30×, 90×, 270×, 810× or 2430× before incubation with peptides. All solutions were prewarmed to 37° C. before mixing with peptide solutions.
Peptides were incubated at 10^−5 M with dilutions of small intestine homogenate at 37° C. for 90 minutes with shaking. Reactions were stopped by addition of 1 M phosphoric acid (final 0.4 M, pH˜1.2). Each peptide incubation mix was then neutralized with NaOH to pH 7.2-7.4 and immediately tested for activity in intestinal cells. Control for zero degradation, i.e. addition of 1 M phosphoric acid prior to addition of intestine homogenate, was included for each peptide. […]
as §1

[3] = biological target: trypsin inhibitor T9253 from chicken egg white (UniProt P01005)
[4] = biological target: T1, trypsin inhibitor, T9128 from soybean (UniProt P01070)
T1 sequence: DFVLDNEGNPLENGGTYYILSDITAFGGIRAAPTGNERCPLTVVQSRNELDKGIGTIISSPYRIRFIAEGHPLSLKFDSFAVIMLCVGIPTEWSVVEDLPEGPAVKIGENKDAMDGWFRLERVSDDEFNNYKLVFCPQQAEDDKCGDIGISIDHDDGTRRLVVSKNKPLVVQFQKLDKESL

Chain of murine intestinal cells (O88319 whole entry): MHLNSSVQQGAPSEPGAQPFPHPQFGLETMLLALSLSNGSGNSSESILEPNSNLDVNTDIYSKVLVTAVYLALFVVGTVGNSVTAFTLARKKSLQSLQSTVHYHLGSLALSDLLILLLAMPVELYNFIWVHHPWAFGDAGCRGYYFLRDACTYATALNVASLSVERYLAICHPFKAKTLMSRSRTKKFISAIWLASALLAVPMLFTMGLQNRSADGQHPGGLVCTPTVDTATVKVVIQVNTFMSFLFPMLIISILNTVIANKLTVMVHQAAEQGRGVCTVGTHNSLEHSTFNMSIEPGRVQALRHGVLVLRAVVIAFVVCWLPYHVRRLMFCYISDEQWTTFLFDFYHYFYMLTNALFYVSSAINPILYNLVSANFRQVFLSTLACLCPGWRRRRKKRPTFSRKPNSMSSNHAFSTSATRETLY
Chain of trypsin inhibitor T9253 from chicken egg white (P01005 25-210): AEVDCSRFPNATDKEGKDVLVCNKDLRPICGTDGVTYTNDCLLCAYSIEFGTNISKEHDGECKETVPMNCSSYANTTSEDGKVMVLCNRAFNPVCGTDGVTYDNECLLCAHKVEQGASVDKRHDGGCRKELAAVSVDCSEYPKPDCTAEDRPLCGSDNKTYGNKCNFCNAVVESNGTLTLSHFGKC

Compound | pEC50 (murine intestinal cells) | other results
QPYIL [Peptide 36009, Q PYIL] | 7.69 | –
EDKPYIL [Peptide 36019, E DKPYIL] | 8.40 | –
QDKPYIL [Peptide 36029, Q DKPYIL] | 8.30 | –
SPYIL [Peptide 36011, S PYIL] | 7.65 | –
MSDKPYIL [Peptide 36046, M SDKPYIL] | 8.31 | Stability in serum (activity remaining) [1]: 0.0762; Stability in intestine (activity remaining) [2]: 3.8%
YSDKPYIL [Peptide 36055, Y SDKPYIL] | 8.23 | Stability in serum (activity remaining) [1]: 0.0491; Stability in intestine (activity remaining) [2]: 3.0%
PPYIL [Peptide 36008, P PYIL] | 8.02 | –
DSDKPYIL [Peptide 36038, D SDKPYIL] | 8.21 | Stability in serum (activity remaining) [1]: 0.0947; Stability in intestine (activity remaining) [2]: 29.9%
RSDKPYIL [Peptide 36050, R SDKPYIL] | 8.40 | Stability in serum (activity remaining) [1]: 0.0735; Stability in intestine (activity remaining) [2]: 2.6%
MDKPYIL [Peptide 36026, M DKPYIL] | 8.22 | –
CC[C@H](C)[C@H](NC(=O)[C@H](Cc1ccc(O)cc1)NC(=O)[C@@H]1CCCN1C(=O)[C@@H](N)CCCNC(=N)N)C(=O)N[C@@H](CC(C)C)C(=O)O [Peptide 36010, R PYIL] | 8.93 | –
IDKPYIL [Peptide 36023, I DKPYIL] | 8.32 | –
FSDKPYIL [Peptide 36040, F SDKPYIL] | 8.41 | Stability in serum (activity remaining) [1]: 0.0944; Stability in intestine (activity remaining) [2]: 3.4%
EPYIL [Peptide 35999, E PYIL] | 6.99 | –
NPYIL [Peptide 36007, N PYIL] | 7.41 | –
HSDKPYIL [Peptide 36042, H SDKPYIL] | 8.44 | Stability in serum (activity remaining) [1]: 0.0980; Stability in intestine (activity remaining) [2]: 6.4%
LDKPYIL [Peptide 36025, L DKPYIL] | 8.19 | –
trypsin in intestine homogenate (mouse small intestine) | – | trypsin activity (conversion of L-BAPA, slope of kinetic absorbance) [3]: Intestinal and pancreatic trypsin activity was inhibited in a dose-dependent manner by two specific trypsin inhibitors from soybean and chicken egg white, respectively; trypsin activity (conversion of L-BAPA, slope of kinetic absorbance) [4]: Intestinal and pancreatic trypsin activity was inhibited in a dose-dependent manner by two specific trypsin inhibitors from soybean and chicken egg white, respectively
NSDKPYIL [Peptide 36047, N SDKPYIL] | 8.36 | Stability in serum (activity remaining) [1]: 0.0872; Stability in intestine (activity remaining) [2]: 3.9%
GSDKPYIL [Peptide 36041, G SDKPYIL] | 8.39 | Stability in serum (activity remaining) [1]: 0.0912; Stability in intestine (activity remaining) [2]: 10.3%
FDKPYIL [Peptide 36020, F DKPYIL] | 8.02 | –
CSDKPYIL [Peptide 36037, C SDKPYIL] | 8.26 | Stability in serum (activity remaining) [1]: 0.0963; Stability in intestine (activity remaining) [2]: 14.0%
LSDKPYIL [Peptide 36045, L SDKPYIL] | 8.09 | Stability in serum (activity remaining) [1]: 0.0917; Stability in intestine (activity remaining) [2]: 7.9%
NDKPYIL [Peptide 36027, N DKPYIL] | 8.23 | –

Compound | pEC50 (murine intestinal cells) | other results
DPYIL [Peptide 35998, D PYIL] | 6.80 | –
GDKPYIL [Peptide 36021, G DKPYIL] | 8.54 | –
ISDKPYIL [Peptide 36043, I SDKPYIL] | 8.16 | Stability in serum (activity remaining) [1]: 0.0956; Stability in intestine (activity remaining) [2]: 6.0%
YDKPYIL [Peptide 36035, Y DKPYIL] | 8.17 | –
DKPYIL [Peptide 35978, D KPYIL] | – | stability in serum compared to neurotensin (8-13) RRPYIL [1]: around 100 times; stability in intestine homogenate compared to neurotensin (8-13) RRPYIL [2]: 100-1000 ×
CDKPYIL [Peptide 36017, C DKPYIL] | 8.11 | –
TKPYIL [Peptide 35992, T KPYIL] | 8.94 | –
WDKPYIL [Peptide 36034, W DKPYIL] | 7.85 | –
QSDKPYIL [Peptide 36049, Q SDKPYIL] | 8.40 | Stability in serum (activity remaining) [1]: 0.0742; Stability in intestine (activity remaining) [2]: 8.8%
FPYIL [Peptide 36000, F PYIL] | 7.71 | –
KSDKPYIL [Peptide 36044, K SDKPYIL] | 7.97 | Stability in serum (activity remaining) [1]: 0.0527; Stability in intestine (activity remaining) [2]: 6.6%
TPYIL [Peptide 36012, T PYIL] | 7.36 | –
VDKPYIL [Peptide 36033, V DKPYIL] | 8.31 | –
ESDKPYIL [Peptide 36039, E SDKPYIL] | 8.32 | Stability in serum (activity remaining) [1]: 0.0964; Stability in intestine (activity remaining) [2]: 23.0%
IPYIL [Peptide 36003, 1 PYIL] | 7.62 | –
CPYIL [Peptide 35997, C PYIL] | 7.16 | –
QKPYIL [Peptide 35989, Q KPYIL] | 9.42 | –
APYIL [Peptide 35996, A PYIL] | 7.93 | –
SKPYIL [Peptide 35991, S KPYIL] | 8.94 | –
MKPYIL [Peptide 35986, M KPYIL] | 9.41 | –
RDKPYIL [Peptide 36030, R DKPYIL] | 8.33 | –
SDKPYIL [Peptide 36031, S DKPYIL] | 8.30 | –
VSDKPYIL [Peptide 36053, V SDKPYIL] | 8.29 | Stability in serum (activity remaining) [1]: 0.0488; Stability in intestine (activity remaining) [2]: 5.6%
PKPYIL [Peptide 35988, P KPYIL] | 9.63 | –

Compound | pEC50 (murine intestinal cells) | other results
DDKPYIL [Peptide 36018, D DKPYIL] | 7.98 | –
TDKPYIL [Peptide 36032, T DKPYIL] | 8.25 | –
WSDKPYIL [Peptide 36054, W SDKPYIL] | 8.05 | Stability in serum (activity remaining) [1]: 0.0426; Stability in intestine (activity remaining) [2]: 3.6%
KPYIL [Peptide 36004, K PYIL] | 8.11 | –
PSDKPYIL [Peptide 36048, P SDKPYIL] | 8.38 | Stability in serum (activity remaining) [1]: 0.0772; Stability in intestine (activity remaining) [2]: 4.6%
SSDKPYIL [Peptide 36051, S SDKPYIL] | 8.37 | Stability in serum (activity remaining) [1]: 0.0609; Stability in intestine (activity remaining) [2]: 19.5%
VPYIL [Peptide 36013, V PYIL] | 7.42 | –
LPYIL [Peptide 36005, L PYIL] | 7.39 | –
GPYIL [Peptide 36001, G PYIL] | 7.76 | –
HPYIL [Peptide 36002, H PYIL] | 7.45 | –
NKPYIL [Peptide 35987, N KPYIL] | 9.30 | –
LKPYIL [Peptide 35985, L KPYIL] | 9.48 | –
MPYIL [Peptide 36006, M PYIL] | 7.79 | –
IKPYIL [Peptide 35983, I KPYIL] | 9.62 | –
YKPYIL [Peptide 35995, Y KPYIL] | 8.48 | –
ADKPYIL [Peptide 36016, A DKPYIL] | 8.45 | –
HDKPYIL [Peptide 36022, H DKPYIL] | 8.58 | –
VKPYIL [Peptide 35993, V KPYIL] | 8.93 | –
YPYIL [Peptide 36015, Y PYIL] | 6.85 | –
KDKPYIL [Peptide 36024, K DKPYIL] | 7.95 | –
WKPYIL [Peptide 35994, W KPYIL] | 8.25 | –
PDKPYIL [Peptide 36028, P DKPYIL] | 8.33 | –
TSDKPYIL [Peptide 36052, T SDKPYIL] | 8.25 | Stability in serum (activity remaining) [1]: 0.0535; Stability in intestine (activity remaining) [2]: 8.4%
